Results reported in ChEMBL document CHEMBL1134618, “Synthesis and biological evaluation of sialylmimetics as rotavirus inhibitors” (J Med Chem, 2001).

Columns and labels:
Rotavirus [1] = test: Inhibitory activity against bovine NCDV Rotavirus strain; format: functional, organism-based
Rotavirus [2] = test: Inhibitory activity against human Wa Rotavirus strain; format: functional, organism-based

SMILES | IC50 (Rotavirus [1]) [mM] | IC50 (Rotavirus [2]) [mM]
CCC(SC[C@@H]1O[C@@H](O[C@H]2[C@H](O)[C@H](O)[C@H](OC)O[C@H]2CO)[C@@H](O)[C@@H](O)[C@H]1O)C(=O)O (stereo partly specified) | 6.25 | 6.25
CO[C@@H]1O[C@@H](CSC(CCO)C(=O)O)[C@H](O)[C@H](O)[C@@H]1O (stereo partly specified) | > 25 | > 25
CO[C@@H]1O[C@@H](CO)[C@@H](O[C@@H]2O[C@@H](CSC(C(=O)O)c3ccccc3)[C@H](O)[C@H](O)[C@@H]2O)[C@H](O)[C@@H]1O (stereo partly specified) | 12.5 | 25
CO[C@@H]1O[C@@H](CSC(CCO)C(=O)O)[C@@H](O)[C@H](O)[C@@H]1O (stereo partly specified) | > 25 | > 25
CO[C@@H]1O[C@@H](CO)[C@@H](O[C@@H]2O[C@@H](CSC(C)C(=O)O)[C@H](O)[C@H](O)[C@@H]2O)[C@H](O)[C@@H]1O (stereo partly specified) | 12.5 | 6.25
COC1OC(CSC(C)C(=O)O)C(O)C(O)C1O (stereo unspecified) | > 25 | > 25
COC1OC(CSC2(C(=O)O)CC(O)C(NC(C)=O)C([C@H](O)[C@H](O)CO)O2)C(O)C(O)C1O (stereo partly specified) |  | > 25
CO[C@@H]1O[C@@H](CSC(C(=O)O)c2ccccc2)[C@@H](O)[C@H](O)[C@@H]1O (stereo partly specified) | > 25 | > 25
CO[C@@H]1O[C@@H](CSC(C(=O)O)c2ccccc2)[C@H](O)[C@H](O)[C@@H]1O (stereo partly specified) | > 25 | > 25
CCC(SC[C@@H]1O[C@@H](OC)[C@@H](O)[C@@H](O)[C@@H]1O)C(=O)O (stereo partly specified) | > 25 | > 25
CCC(SC[C@@H]1O[C@@H](OC)[C@@H](O)[C@@H](O)[C@H]1O)C(=O)O (stereo partly specified) | 25 | > 25
